Laboratory results: patent US20210116467A1, “DIABETES-RELATED BIOMARKERS AND TREATMENT OF DIABETES-RELATED CONDITIONS” (priority 2015, published 2021)

System: GLP1
Experiment: GLP1 production induced by treatment with bile acids (immunofluorescence staining of TGR5 and GLP1 in CCL-241 cells)
Assay type: cell-based
Details: CCL-241 human small intestinal normal epithelial cells; 100 μM bile acid; compared to wild type (WT) and DMSO controls; FIG. 13
Protocol: Several bile acids were tested for their ability to increase production of GLP-1. Without being bound by theory, the inventor believes that compounds which increase the production of GLP-1 provide an anti-diabetic effect.
CCL-241, a human small intestinal normal epithelial cell were treated with 100 μM of different bile acids and compared to that of wild type (WT) and DMSO treatment as controls. The expression of TGR5 and GLP1 were detected by Immunofluorescence staining.

Compound | GLP1-promotion effect (expression of GLP1 detected by immunofluorescence staining)
C[C@H](CCC(=O)O)[C@H]1CC[C@H]2[C@@H]3C[C@H](O)[C@@H]4C[C@H](O)CC[C@]4(C)[C@H]3CC[C@]12C [HDCA, Hyodeoxycholic acid] | strongest GLP1-promotion effect
O=C(O)C(Cl)(Cl)Cl [TCA] | substantial GLP-1 promotion effect
C[C@H](CCC(=O)NCC(=O)O)[C@H]1CC[C@H]2[C@@H]3C[C@H](O)[C@@H]4C[C@H](O)CC[C@]4(C)[C@H]3CC[C@]12C [GHDCA, Glycohyodeoxycholic acid] | strongest GLP1-promotion effect
C[C@H](CCC(=O)NCCS(=O)(=O)[O-])[C@H]1CC[C@H]2[C@@H]3C[C@H](O)[C@@H]4C[C@H](O)CC[C@]4(C)[C@H]3CC[C@]12C.[Na+] [THDCA, Taurohyodeoxycholic acid] | strongest GLP1-promotion effect
C[C@H](CCC(=O)O)[C@H]1CC[C@H]2[C@@H]3[C@H](O)[C@H](O)[C@@H]4C[C@H](O)CC[C@]4(C)[C@H]3CC[C@]12C [HCA, Hyocholic acid] | strongest GLP1-promotion effect
C[C@H](CCC(=O)O)[C@H]1CC[C@H]2[C@@H]3CC[C@@H]4C[C@H](O)CC[C@]4(C)[C@H]3C[C@H](O)[C@]12C [DCA] | substantial GLP-1 promotion effect
